15 compounds from patent US10047051B2, “Substituted pyridines and method of use” (AbbVie S.á{acute over (.)}r.l., priority 2015, dated 2018) can be followed below.

Holding throughout (assay type): cell-based
The target of one assay is T1, CFTR ΔF508 mutant (Homo sapiens, UniProt P13569, DEL508-508).
T1 construct: expressed in transfected cells; host or cells: CFBE41o- cells, adenoviral transduction
The assay is described as follows: YFP-halide influx assay for the CFTR-ΔF508 mutation (CFBE41o- cells). The following applies: forskolin 10.67 μM; for EC50: from (1−F/F0) vs concentration plot. In outline: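 CFBE41o- cells transduced with adenovirus expressing CFTR ΔF508 and halide-sensitive YFP H148Q/I152L/F47L, then held 24 h at 27° C or with a CFTR modulator 24 h at 37° C. Iodide-induced quench recorded 2 min; EC50 from (1−F/F0) at 36 s versus concentration.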

The target of a further assay is G551D CFTR (Homo sapiens, UniProt P13569, G551D). Nature of the assay: TECC assay, FRT-CFTR G551D protocol. The following applies: FRT cells stably transfected with G551D CFTR, high expression cells, increase in Isc after forskolin. As for the experimental part: For G551D recordings, Fischer Rat Thyroid (FRT) cells stably transfected with G551D CFTR (a low CFTR-G551D expressing cell line and a high expressing CFTR-G551D cell line from Rosalind Franklin University of Medicine and Science, North Chicago, Ill.) are plated on Transwell® supports (Costar 6.5 mm diameter, 0.4 μm pore size). The cells are grown for 8-10 days under liquid-liquid interface conditions prior to electrophysiological readings. For electrophysiological recording, the FRT-G551D cells are mounted in the TECC heating plate for electrophysiological measurement and kept at 37° C. The epithelia are bathed in HEPES buffered culturing medium without FBS on both the basolateral and apical sides. Apical amiloride is used to inhibit the endogenous ENaC currents while forkolin is applied on both apical and basolateral side to stimulate CFTR. After forskolin triggering, compounds are added on both sides to test their potential for increasing CFTR gating. Measurements are done during a 10 minute timeframe with recordings every 2 minutes. The increase in Isc is used as a measure for the increased CFTR activity, EC50 values can be generated by measuring impact of different concentrations of compound on Isc on the cells, for this purpose each transwell is treated with a different compound concentration. Inh-172, an inhibitor specific for CFTR, is used to test the specificity of the tested compounds.
Sequence of G551D CFTR (P13569 whole entry G551D): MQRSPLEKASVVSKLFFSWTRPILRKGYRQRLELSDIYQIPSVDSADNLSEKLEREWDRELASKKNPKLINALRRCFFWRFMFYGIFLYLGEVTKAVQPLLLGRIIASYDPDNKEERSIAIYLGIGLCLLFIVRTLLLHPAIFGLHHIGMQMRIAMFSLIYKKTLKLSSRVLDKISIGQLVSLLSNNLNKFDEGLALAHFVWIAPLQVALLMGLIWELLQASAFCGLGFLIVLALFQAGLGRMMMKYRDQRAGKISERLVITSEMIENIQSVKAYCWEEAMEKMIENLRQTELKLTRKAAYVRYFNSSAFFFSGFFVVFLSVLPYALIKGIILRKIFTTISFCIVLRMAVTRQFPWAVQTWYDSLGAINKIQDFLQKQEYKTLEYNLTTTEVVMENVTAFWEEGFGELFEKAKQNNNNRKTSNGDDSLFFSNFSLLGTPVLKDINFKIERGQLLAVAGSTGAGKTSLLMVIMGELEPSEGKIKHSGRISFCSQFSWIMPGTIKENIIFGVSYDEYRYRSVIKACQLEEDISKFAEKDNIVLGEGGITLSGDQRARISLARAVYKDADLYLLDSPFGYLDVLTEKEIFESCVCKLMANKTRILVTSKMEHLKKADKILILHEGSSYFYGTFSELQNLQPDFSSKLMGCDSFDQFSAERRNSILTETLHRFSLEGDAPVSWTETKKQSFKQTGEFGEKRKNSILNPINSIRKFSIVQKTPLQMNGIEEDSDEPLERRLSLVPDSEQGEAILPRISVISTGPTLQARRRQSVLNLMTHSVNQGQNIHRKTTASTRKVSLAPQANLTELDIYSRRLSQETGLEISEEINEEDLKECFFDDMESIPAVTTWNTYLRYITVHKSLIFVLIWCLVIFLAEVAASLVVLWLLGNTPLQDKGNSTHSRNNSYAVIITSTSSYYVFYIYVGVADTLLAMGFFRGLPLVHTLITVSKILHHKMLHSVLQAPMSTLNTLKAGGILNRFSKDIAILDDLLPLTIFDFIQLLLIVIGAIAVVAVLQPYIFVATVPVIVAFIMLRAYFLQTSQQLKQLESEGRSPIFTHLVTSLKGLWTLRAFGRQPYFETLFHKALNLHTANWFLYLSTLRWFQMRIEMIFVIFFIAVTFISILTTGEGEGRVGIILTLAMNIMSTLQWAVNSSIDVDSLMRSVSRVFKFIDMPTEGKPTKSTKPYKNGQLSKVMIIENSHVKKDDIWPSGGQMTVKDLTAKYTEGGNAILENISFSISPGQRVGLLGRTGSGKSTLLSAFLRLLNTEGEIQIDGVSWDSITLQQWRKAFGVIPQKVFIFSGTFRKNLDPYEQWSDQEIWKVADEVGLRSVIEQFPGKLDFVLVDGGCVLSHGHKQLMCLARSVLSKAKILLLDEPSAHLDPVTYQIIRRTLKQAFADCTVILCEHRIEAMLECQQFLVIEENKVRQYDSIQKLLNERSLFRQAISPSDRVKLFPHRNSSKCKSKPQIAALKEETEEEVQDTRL

The next assay deals with T2, CFTR G551D/ΔF508 (Homo sapiens, UniProt P13569, G551D).
T2 construct: host or cells: primary human bronchial epithelial cells from CF patients heterozygous G551D/ΔF508, no corrector pre-treatment
T2 sequence (P13569 whole entry F508del/G551D): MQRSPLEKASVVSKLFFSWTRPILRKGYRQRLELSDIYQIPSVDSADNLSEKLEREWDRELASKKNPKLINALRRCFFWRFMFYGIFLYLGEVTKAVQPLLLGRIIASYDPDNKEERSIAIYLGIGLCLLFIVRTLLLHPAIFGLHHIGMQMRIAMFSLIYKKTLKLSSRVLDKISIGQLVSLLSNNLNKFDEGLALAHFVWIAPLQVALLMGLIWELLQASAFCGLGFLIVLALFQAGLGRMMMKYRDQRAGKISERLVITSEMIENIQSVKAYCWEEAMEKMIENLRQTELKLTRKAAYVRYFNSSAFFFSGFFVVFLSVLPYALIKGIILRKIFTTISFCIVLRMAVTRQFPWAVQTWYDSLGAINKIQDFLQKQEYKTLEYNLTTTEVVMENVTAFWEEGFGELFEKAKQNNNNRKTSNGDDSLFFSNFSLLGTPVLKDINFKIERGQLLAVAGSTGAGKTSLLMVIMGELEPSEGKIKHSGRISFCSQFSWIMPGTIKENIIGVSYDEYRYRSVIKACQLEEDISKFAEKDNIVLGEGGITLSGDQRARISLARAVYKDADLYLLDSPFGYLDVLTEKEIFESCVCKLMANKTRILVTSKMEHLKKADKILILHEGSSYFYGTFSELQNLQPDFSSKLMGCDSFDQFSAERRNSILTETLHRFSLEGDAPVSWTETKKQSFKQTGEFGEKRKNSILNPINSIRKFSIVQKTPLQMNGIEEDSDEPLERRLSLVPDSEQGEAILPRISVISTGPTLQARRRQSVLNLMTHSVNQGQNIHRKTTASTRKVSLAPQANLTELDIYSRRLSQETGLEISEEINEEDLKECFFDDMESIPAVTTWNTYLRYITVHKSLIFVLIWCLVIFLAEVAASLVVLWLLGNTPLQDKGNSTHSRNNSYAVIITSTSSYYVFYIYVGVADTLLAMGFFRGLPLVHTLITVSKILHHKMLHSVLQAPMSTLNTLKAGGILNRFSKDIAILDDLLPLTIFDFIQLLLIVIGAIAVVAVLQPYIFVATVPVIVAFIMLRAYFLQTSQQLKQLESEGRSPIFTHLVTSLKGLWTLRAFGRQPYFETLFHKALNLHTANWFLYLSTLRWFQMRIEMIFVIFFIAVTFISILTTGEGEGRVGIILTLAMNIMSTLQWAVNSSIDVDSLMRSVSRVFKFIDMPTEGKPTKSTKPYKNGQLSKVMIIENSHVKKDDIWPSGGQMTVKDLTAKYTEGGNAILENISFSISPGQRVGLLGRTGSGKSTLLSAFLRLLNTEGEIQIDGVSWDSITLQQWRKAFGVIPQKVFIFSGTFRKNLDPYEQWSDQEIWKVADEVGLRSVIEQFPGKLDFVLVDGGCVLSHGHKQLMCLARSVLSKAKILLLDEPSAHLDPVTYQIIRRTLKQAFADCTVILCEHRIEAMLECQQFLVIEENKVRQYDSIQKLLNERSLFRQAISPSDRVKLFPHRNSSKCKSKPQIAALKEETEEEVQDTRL
The assay is described as follows: TECC assay, primary bronchial epithelial cells, CFTR G551D/ΔF508. The following applies: primary bronchial epithelial cells heterozygous G551D/ΔF508, acute mode, increase in Isc after forskolin. On the procedure: The TECC (Tranepithelial Clamp Circuit, EP-design) assay measures the functionality of the cystic fibrosis Transmembrane Conductance regulator (CFTR) by measuring the short circuit current (Isc) generated over the basolateral and apical membrane of lung epithelial cells. In TECC the transepithelial potential PD and transepithelial resistance (Rt) are measured in an open circuit and transformed to Isc using Ohm's law. 24 Wells can be measured simultaneously allowing a higher throughput compared to Ussing chambers.
For this purpose, bronchial epithelial cells isolated from CF patients homozygous for the CFTR ΔF508 mutation (hAEC-CF, Epithelix) are plated on type IV collagen-coated Transwell® supports (Costar). Human airway epithelia are generated by provision of an air-liquid interface for 21 days to form well-differentiated polarized cultures that resemble in vivo pseudo-stratified ciliated epithelium (Fulcher, M. L., Gabriel, S., Burns, K. A., Yankaskas, J. R., Randell, S. H., 2005. Well-differentiated human airway epithelial cell cultures. Methods Mol. Med. 107, 183-206). In the case of the homozygous ΔF508 CFTR samples, the differentiated cells are treated with 3 μM VX809 (2626 South Loop West, Suite 225, Houston, Tex. 77054 USA, Cat n# S1565) to allow sufficient expression of properly folded CFTR protein on the membrane (48 hours basolateral treatment and 24 hours apical treatment), prior to electrophysiological recordings. For heterozygous G551D/ΔF508, differentiated cells are used as such for the recordings.
Information on the compounds can be retrieved on the homozygous ΔF508 CFTR samples looking at increased CFTR activity when compounds are added in an acute mode or in a chronic mode. On G551D/ΔF508 CFTR heterozygous samples compounds are added in an acute mode to the differentiated cells.
For the acute mode, for electrophysiological recording, the human airway epithelia are mounted in the TECC heating plate for electrophysiological measurement and kept at 37° C. The epithelia are bathed in a NaCl-Ringer solution (120 mM NaCl, 25 mM NaHCO3, 1.2 mM CaCl2, 1.2 mM MgCl2, 0.8 mM KH2PO4, 0.8 mM K2HPO4, pH 7.4, 5 mM glucose) on both the basolateral and apical sides. Apical amiloride is used to inhibit the endogenous ENaC currents while forkolin is applied on both apical and basolateral side to stimulate CFTR. After forskolin triggering, compounds are added on both sides to test their potential for increasing CFTR gating. Measurements are done during a 20 minute timeframe with recordings every 2 minutes. The increase in Isc is used as a measure for the increased CFTR activity, EC50 values can be generated by measuring impact of different concentrations of compound on Isc on primary cells, for this purpose each transwell is treated with a different compound concentration. Inh-172, an inhibitor specific for CFTR, is used to test the specificity of the tested compounds.
When subjected to this protocol, the following values were obtained. The difference between ΔIsc measured as DMSO (baseline), and the ΔIsc measured with the compound tested.

T1 sequence (P13569 with tags, fused parts or gaps DEL508-508): as the sequence (P13569 whole entry F508del/G551D) above, with D550G counted along it

A word on the EC50: it is the concentration needed to bring the measured effect to its halfway point. Higher therefore signals a less potent agent. Regarding `CC(C)(O)CNC(=O)c1ncc(S(=O)(=O)c2ccc(OC(F)(F)F)cc2)cc1N` [Compound 1, 3-amino-N-(2-hydroxy-2-methylpropyl)-5-{[4-(trifluoromethoxy)phenyl]sulfonyl}pyridine-2-carboxamide], on CFTR ΔF508 mutant, the “% Activation” value is reported as 97.9% and the EC50 is 31.4 nM. The EC50 on G551D CFTR came out at 645 nM.

Consider `Nc1cc(S(=O)(=O)c2ccc(OC(F)(F)F)cc2)cnc1C(=O)NC[C@@H](O)C(F)(F)F` [Compound 37, 3-amino-N-[(2R)-3,3,3-trifluoro-2-hydroxypropyl]-5-{[4-(trifluoromethoxy)phenyl]sulfonyl}pyridine-2-carboxamide], for which, at CFTR ΔF508 mutant, the “% Activation” value turned out to be 106.4% and the EC50 was found to be 2.3 nM. For the same compound, at CFTR G551D/ΔF508, the response was half-maximal at 232 nM (EC50).

With `Nc1cc(S(=O)(=O)c2ccccc2OC(F)(F)F)cnc1C(=O)NC[C@@H](O)C(F)(F)F` [Compound 81, 3-amino-N-[(2R)-3,3,3-trifluoro-2-hydroxypropyl]-5-{[2-(trifluoromethoxy)phenyl]sulfonyl}pyridine-2-carboxamide], on CFTR ΔF508 mutant, the “% Activation” value is recorded as 104.0% and it took 0.5 nM to reach a half-maximal effect (EC50).

For `Nc1cc(S(=O)(=O)c2ccc(OC(F)(F)F)cc2)cnc1C(=O)NCCO` [Compound 14, 3-amino-N-(2-hydroxyethyl)-5-{[4-(trifluoromethoxy)phenyl]sulfonyl}pyridine-2-carboxamide], the “% Activation” value at CFTR ΔF508 mutant is 108.1%. Besides, the EC50 was 23.7 nM at CFTR ΔF508 mutant, 5300 nM on CFTR G551D/ΔF508 and 11700 nM at G551D CFTR.

For the compound `C[C@H](O)CNC(=O)c1ncc(S(=O)(=O)c2ccc(C(F)(F)F)cc2)cc1N` [Compound 100, 3-amino-N-[(2S)-2-hydroxypropyl]-5-{[4-(trifluoromethyl)phenyl]sulfonyl}pyridine-2-carboxamide], the “% Activation” value on CFTR ΔF508 mutant turned out to be 96.6%. Besides, the EC50 on CFTR ΔF508 mutant was determined as 12.9 nM; at CFTR G551D/ΔF508, 2380 nM; on G551D CFTR, 1190 nM.

Turning to `CC(O)(CNC(=O)c1ncc(S(=O)(=O)c2ccc(OC(F)(F)F)cc2)cc1N)C(F)(F)F` (stereo not drawn) [Compound 2, 3-amino-N-(3,3,3-trifluoro-2-hydroxy-2-methylpropyl)-5-{[4-(trifluoromethoxy)phenyl]sulfonyl}pyridine-2-carboxamide], on CFTR ΔF508 mutant, the “% Activation” value is listed as 104.5% and the EC50 turned out to be 4.3 nM.

Turning to `Nc1cc(S(=O)(=O)c2ccc(OC(F)(F)F)cc2)cnc1C(=O)N1CC(O)C1` [Compound 32, (3-amino-5-{[4-(trifluoromethoxy)phenyl]sulfonyl}pyridin-2-yl)(3-hydroxyazetidin-1-yl)methanone], on CFTR ΔF508 mutant, the “% Activation” value was determined as 96.1% and the EC50 was determined as 14.5 nM.

`C[C@H](O)CNC(=O)c1ncc(S(=O)(=O)c2ccc(OC(F)(F)F)cc2)cc1N` [Compound 21, 3-amino-N-[(2S)-2-hydroxypropyl]-5-{[4-(trifluoromethoxy)phenyl]sulfonyl}pyridine-2-carboxamide]: at CFTR ΔF508 mutant, the “% Activation” value was 109.0%. Moreover, the figures for the EC50 at CFTR ΔF508 mutant, on CFTR G551D/ΔF508 and at G551D CFTR were 14.9 nM, 847 nM and 1630 nM, respectively.

Turning to `Nc1cc(S(=O)(=O)c2ccc(OC(F)(F)F)cc2)cnc1C(=O)NCC(O)COCC1CC1` (stereo not drawn) [Compound 31, 3-amino-N-[3-(cyclopropylmethoxy)-2-hydroxypropyl]-5-{[4-(trifluoromethoxy)phenyl]sulfonyl}pyridine-2-carboxamide], the “% Activation” value on CFTR ΔF508 mutant worked out at 106.2%. The EC50 came out at 18.6 nM at CFTR ΔF508 mutant, 632 nM at CFTR G551D/ΔF508 and 824 nM on G551D CFTR.

Consider `Nc1cc(S(=O)(=O)c2ccc(OC(F)(F)F)cc2)cnc1C(=O)NC[C@H](O)C(F)(F)F` [Compound 26, 3-amino-N-[(2S)-3,3,3-trifluoro-2-hydroxypropyl]-5-{[4-(trifluoromethoxy)phenyl]sulfonyl}pyridine-2-carboxamide], for which, on CFTR ΔF508 mutant, the “% Activation” value is reported as 105.3% and the EC50 stood at 2.2 nM. The same compound had an EC50 at G551D CFTR of 1230 nM.

Turning to `Nc1cc(S(=O)(=O)c2ccc(F)cc2)cnc1C(=O)NC[C@H](O)C(F)(F)F` [Compound 25, 3-amino-5-[(4-fluorophenyl)sulfonyl]-N-[(2S)-3,3,3-trifluoro-2-hydroxypropyl]pyridine-2-carboxamide], on CFTR ΔF508 mutant, the “% Activation” value came to 108.3% and the 50% effective concentration (EC50) came to 8.1 nM. For the same compound, the response at G551D CFTR was half-maximal at 1200 nM (EC50).

`Nc1cc(S(=O)(=O)c2ccc(OC(F)(F)F)cc2)cnc1C(=O)N1CC(F)(F)C1` [Compound 40, (3-amino-5-{[4-(trifluoromethoxy)phenyl]sulfonyl}pyridin-2-yl)(3,3-difluoroazetidin-1-yl)methanone]: on CFTR ΔF508 mutant, the “% Activation” value came out at 105.5%. The EC50 amounted to 22.9 nM at CFTR ΔF508 mutant and 443 nM at CFTR G551D/ΔF508.

Consider `COC[C@H](O)CNC(=O)c1ncc(S(=O)(=O)c2ccc(C(F)(F)F)cc2)cc1N` [Compound 70, 3-amino-N-[(2R)-2-hydroxy-3-methoxypropyl]-5-{[4-(trifluoromethyl)phenyl]sulfonyl}pyridine-2-carboxamide], for which, on CFTR ΔF508 mutant, the “% Activation” value worked out at 111.6%. Further, the half-maximal effective concentration (EC50) was 16.9 nM on CFTR ΔF508 mutant, 3520 nM on CFTR G551D/ΔF508 and 622 nM on G551D CFTR.

For `Nc1cc(S(=O)(=O)c2ccc(OC(F)(F)F)cc2)cnc1C(=O)NCC(O)C(F)(F)F` (stereo not drawn) [Compound 6, 3-amino-N-(3,3,3-trifluoro-2-hydroxypropyl)-5-{[4-(trifluoromethoxy)phenyl]sulfonyl}pyridine-2-carboxamide], at CFTR ΔF508 mutant, the “% Activation” value is given as 114.0% and the EC50 was determined as 3.4 nM. For the same compound, the EC50 on G551D CFTR was found to be 443 nM.

Consider `Nc1cc(S(=O)(=O)c2ccc(F)cc2)cnc1C(=O)NC[C@@H](O)C(F)(F)F` [Compound 36, 3-amino-5-[(4-fluorophenyl)sulfonyl]-N-[(2R)-3,3,3-trifluoro-2-hydroxypropyl]pyridine-2-carboxamide], for which the “% Activation” value on CFTR ΔF508 mutant is 111.0%. For the same compound, the EC50 was 8.5 nM at CFTR ΔF508 mutant, 1010 nM on CFTR G551D/ΔF508 and 735 nM at G551D CFTR.
